Measurements published in patent US20100247579A1, “THERAPEUTIC AGENT FOR CANCER” (priority 2007, published 2010).
≈ marks a conversion by molar mass, not a printed value. Like-named read-outs stand apart in the source and are kept apart here.

Tests used:
[1] = test system: lymphocytes derived from cancer patient No. PT009 expanded with OKT3 and CH-296; test: Resistance to anticancer agents, WST-1 GI50 on cultured lymphocytes of cancer patient No. PT009; assay type: cell-based, human; conditions: Homo sapiens, Lymphocyte, day 10 of culture with OKT3 and CH-296, 20 hours with drug, read-out: GI50
Method: After that, the suspension was stained by the trypan blue staining method to calculate the viable cell count, and then subjected to each experiment.
(§1) On the other hand, the IL-2/5HRPMI was added to the control group in 50 μL/well each.
(§2) These culture plates were incubated at 37° C. for 20 hours in the presence of 5% CO2. After the incubation, WST-1 (Premix WST-1 Cell Proliferation Assay System, manufactured by Takara Bio Inc.) was added in 20 μL/well each to each well of the plate, and incubated in the presence of 5% CO2 at 37° C. for 4 hours. The plates after the incubation were centrifuged at 500×g at room temperature for 5 minutes. After the centrifugation, 100 μL of the supernatant was collected from each well, and the absorbance was measured at an absorption wavelength of 450 nm and a control wavelength of 630 nm [hereinafter referred to as the absorbance (450 nm-630 nm)] using a microplate reader (manufactured by Bio-Rad Laboratories, Inc., Model Number 680XR), and then the specific absorbance (450 nm-630 nm) was calculated according to the following formula.
(§3) Specific absorbance (450 nm-630 nm)=Absorbance of Test Cell Addition Group (450 nm-630 nm)−Absorbance of Control Group (450 nm-630 nm) Formula 2: […]

[2] = test system: expanded lymphocytes derived from a human healthy donor; test: Resistance to anticancer agents, WST-1 GI50 on cultured lymphocytes of a human healthy donor; assay type: cell-based; conditions: Homo sapiens, Lymphocyte
Method: as §1, §2, §3
Here, a group where only OKT3 was immobilized to the culture equipment in the expansion of the lymphocytes was also set.
However, in the case of paclitaxel, a human AB type serum was used as a solvent for dilution, and for other drugs, 5HRPMI was used for dilution.

[3] = healthy donor lymphocytes expanded with OKT3 + CH-296, read-out: GI50 (μg/mL) Initial Stimulation OKT3 + CH-296
[4] = healthy donor lymphocytes expanded with OKT3 alone, read-out: GI50 (μg/mL) Initial Stimulation OKT3

`O=c1[nH]cc(F)c(=O)[nH]1` [Fluorouracil, fluorouracil] gave a GI50 [1] of 639 µg/mL (≈ 4.91 mM), a GI50 [2, 3] of 3270 µg/mL and a GI50 [2, 4] of 2290 µg/mL (≈ 17.6 mM).

`CC(=O)O[C@H]1C(=O)[C@@]2(C)[C@H]([C@H](OC(=O)c3ccccc3)[C@]3(O)C[C@H](OC(=O)[C@H](O)[C@@H](NC(=O)c4ccccc4)c4ccccc4)C(C)=C1C3(C)C)[C@]1(OC(C)=O)CO[C@@H]1C[C@@H]2O` [Paclitaxel, paclitaxel] was tested, and the GI50 [2, 3] was 39.7 µg/mL and the GI50 [2, 4] was 34.1 µg/mL (≈ 0.0399 mM).
